Results taken from patent publication US20260262643A1, “HERBICIDAL BENZOXAZINES” (FMC CORPORATION, priority 2022, published 2026).

Experiments:
[1] = test system: pigweed, palmer; assay: Test C preemergence; type: in vivo, Amaranthus palmeri; conditions: for Pigweed, Palmer plant response rating: preemergence; for Plant response rating, Pigweed, Palmer: Preemergence
Procedure, shortened: (§1)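 Seeds sown in loam soil–sand blend received a directed preemergence soil spray of test chemical in non-phytotoxic solvent with surfactant; postemergence plants (2–10 cm, one- to two-leaf stage) were sprayed with the same formulation. Greenhouse-held 10 days, then visually rated for injury versus untreated controls, 0 (no effect) to 100 (complete control).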

[2] = test system: kochia; assay: Test C postemergence; type: in vivo, Bassia scoparia; conditions: 10 days
Procedure, shortened: as §1

[3] = test system: wheat; assay: Test C postemergence; type: in vivo, Triticum aestivum; conditions: 10 days
Procedure, shortened: as §1

[4] = test system: corn; assay: Test C postemergence; type: in vivo, Zea mays; conditions: 10 days
Procedure, shortened: as §1

[5] = test system: ragweed; assay: Test C postemergence; type: in vivo, Ambrosia artemisiifolia; conditions: 10 days
Procedure, shortened: as §1

[6] = test system: ragweed; assay: Test C preemergence; type: in vivo, Ambrosia artemisiifolia; conditions: for Ragweed plant response rating: preemergence; for Plant response rating, Ragweed: Preemergence
Procedure, shortened: as §1

[7] = test system: ryegrass, Italian; assay: Test C postemergence; type: in vivo, Lolium multiflorum; conditions: 10 days
Procedure, shortened: as §1

[8] = test system: barnyardgrass; assay: Test D flooded paddy test; type: in vivo, Echinochloa crus-galli; conditions: 250 g ai/ha, applied to paddy water, visual rating after 13 to 14 days, scale 0 to 100 (0 no effect, 100 complete control)
Procedure, shortened: (§2)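 Visual ratings from 0, meaning no effect, to 100, meaning complete control, were assigned against untreated controls 13 to 14 days after compounds were added to the floodwater of pots kept 3 cm deep, with plants at the 2-leaf stage.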

[9] = test system: corn; assay: Test C preemergence; type: in vivo, Zea mays; conditions: for Corn plant response rating: preemergence; for Plant response rating, Corn: Preemergence
Procedure, shortened: as §1

[10] = test system: barnyardgrass; assay: Test C preemergence; type: in vivo, Echinochloa crusgalli; conditions: for Barnyardgrass plant response rating: preemergence; for Plant response rating, Barnyardgrass: Preemergence
Procedure, shortened: as §1

[11] = test system: green foxtail; assay: Test C postemergence; type: in vivo, Setaria viridis; conditions: 10 days
Procedure, shortened: as §1

[12] = test system: blackgrass; assay: Test C postemergence; type: in vivo, Alopecurus myosuroides; conditions: 10 days
Procedure, shortened: as §1

[13] = test system: oat, wild; assay: Test C postemergence; type: in vivo, Avena fatua; conditions: 10 days
Procedure, shortened: as §1

[14] = test system: wheat; assay: Test C preemergence; type: in vivo, Triticum aestivum; conditions: for Wheat plant response rating: preemergence; for Plant response rating, Wheat: Preemergence
Procedure, shortened: as §1

[15] = test system: ryegrass, Italian; assay: Test C preemergence; type: in vivo, Lolium multiflorum; conditions: for Ryegrass, Italian plant response rating: preemergence; for Plant response rating, Ryegrass, Italian: Preemergence
Procedure, shortened: as §1

[16] = test system: kochia; assay: Test C preemergence; type: in vivo, Bassia scoparia; conditions: for Kochia plant response rating: preemergence; for Plant response rating, Kochia: Preemergence
Procedure, shortened: as §1

[17] = test system: blackgrass; assay: Test C preemergence; type: in vivo, Alopecurus myosuroides; conditions: for Blackgrass plant response rating: preemergence; for Plant response rating, Blackgrass: Preemergence
Procedure, shortened: as §1

[18] = test system: sedge, umbrella; assay: Test D flooded paddy test; type: in vivo, Cyperus difformis; conditions: 250 g ai/ha, applied to paddy water, visual rating after 13 to 14 days, scale 0 to 100 (0 no effect, 100 complete control)
Procedure, shortened: as §2

[19] = test system: barnyardgrass; assay: Test C postemergence; type: in vivo, Echinochloa crusgalli; conditions: 10 days
Procedure, shortened: as §1

[20] = test system: pigweed, palmer; assay: Test C postemergence; type: in vivo, Amaranthus palmeri; conditions: 10 days
Procedure, shortened: as §1

[21] = test system: soybean; assay: Test C preemergence; type: in vivo, Glycine max; conditions: for Soybean plant response rating: preemergence; for Plant response rating, Soybean: Preemergence
Procedure, shortened: as §1

[22] = test system: horseweed; assay: Test C postemergence; type: in vivo, Erigeron canadensis; conditions: 10 days
Procedure, shortened: as §1

[23] = test system: ducksalad; assay: Test D flooded paddy test; type: in vivo, Heteranthera limosa; conditions: 250 g ai/ha, applied to paddy water, visual rating after 13 to 14 days, scale 0 to 100 (0 no effect, 100 complete control)
Procedure, shortened: as §2

[24] = test system: oat, wild; assay: Test C preemergence; type: in vivo, Avena fatua; conditions: for Oat, Wild plant response rating: preemergence; for Plant response rating, Oat, Wild: Preemergence
Procedure, shortened: as §1

[25] = test system: rice; assay: Test D flooded paddy test; type: in vivo, Oryza sativa; conditions: 250 g ai/ha, applied to paddy water, visual rating after 13 to 14 days, scale 0 to 100 (0 no effect, 100 complete control)
Procedure, shortened: as §2

[26] = test system: galium; assay: Test C postemergence; type: in vivo, Galium aparine; conditions: 10 days
Procedure, shortened: as §1

[27] = test system: green foxtail; assay: Test C preemergence; type: in vivo, Setaria viridis; conditions: for Foxtail, Green plant response rating: preemergence; for Plant response rating, Foxtail, Green: Preemergence
Procedure, shortened: as §1

[28] = test system: soybean; assay: Test C postemergence; type: in vivo, Glycine max; conditions: 10 days
Procedure, shortened: as §1

[29] = 500 g ai/ha, 0 to 100 scale (0 no effect, 100 complete control)
[30] = 125 g ai/ha, 0 to 100 scale, 0 no effect, 100 complete control
[31] = 500 g ai/ha, postemergence, 0 to 100 scale (0 no effect, 100 complete control)
[32] = Postemergence, 125 g ai/ha, 0 to 100 scale (0 no effect, 100 complete control)
[33] = 500 g ai/ha, visual rating after 10 days, 0 to 100 scale (0 no effect, 100 complete control)
[34] = Test C, 125 g ai/ha, 0 to 100 scale (0 no effect, 100 complete control)
[35] = 125 g ai/ha, postemergence, 0 to 100 scale, 0 no effect, 100 complete control
[36] = Postemergence, 500 g ai/ha, visual 0 to 100 scale (0 no effect, 100 complete control)

CCOC[C@H]1CN(C(=O)c2cc(-n3cnc(C(C)C)n3)cc3c2OCCO3)c2cccc(Cl)c2O1 [Compound 396]
30: Plant response rating, Blackgrass [12, 32] | Wheat plant response rating [14, 29] | Plant response rating, Barnyardgrass [19, 32] | Plant response rating, Oat, Wild [24, 30]
10: Plant response rating, Corn [9, 30]
40: Corn plant response rating [9, 29] | Plant response rating, Oat, Wild [13, 31] | Blackgrass plant response rating [17, 29]
100: Pigweed, Palmer plant response rating [1, 29] | Plant response rating, Pigweed, Palmer [1, 30] | Plant response rating, Kochia [2, 31] | Soybean plant response rating [21, 29] | Plant response rating, Galium [26, 31] | Plant response rating, Galium [26, 32] | Foxtail, Green plant response rating [27, 29] | Plant response rating, Soybean [28, 32]
20: Plant response rating, Wheat [3, 32] | Plant response rating, Oat, Wild [13, 32] | Plant response rating, Blackgrass [17, 30]
50: Plant response rating, Corn [4, 32] | Plant response rating, Barnyardgrass [10, 30] | Plant response rating, Barnyardgrass [19, 31]
80: Plant response rating, Kochia [2, 32] | Plant response rating, Ragweed [6, 30] | Plant response rating, Foxtail, Green [11, 31]
70: Plant response rating, Ragweed [5, 32] | Plant response rating, Blackgrass [12, 31] | Plant response rating, Kochia [16, 30]
60: Plant response rating, Corn [4, 31] | Plant response rating, Foxtail, Green [11, 32] | Plant response rating, Ryegrass, Italian [15, 30] | Plant response rating, Soybean [21, 30] | Plant response rating, Horseweed [22, 31]
0: Plant response rating, Ryegrass, Italian [7, 32] | Plant response rating, Barnyardgrass (Flood) [8] | Plant response rating, Wheat [14, 30] | Plant response rating, Sedge, Umbrella (Flood) [18] | Plant response rating, Horseweed [22, 32] | Plant response rating, Ducksalad (Flood) [23] | Plant response rating, Rice (Flood) [25]
90: Ragweed plant response rating [6, 29] | Barnyardgrass plant response rating [10, 29] | Ryegrass, Italian plant response rating [15, 29] | Kochia plant response rating [16, 29] | Plant response rating, Pigweed, Palmer [20, 31] | Plant response rating, Pigweed, Palmer [20, 32] | Oat, Wild plant response rating [24, 29] | Plant response rating, Foxtail, Green [27, 30]

Cc1ccc(-n2cnc(C(C)(F)F)n2)cc1C(=O)N1C[C@H](C)Oc2c(Cl)cccc21 [Compound 248]
20: Corn plant response rating [9, 34]
70: Plant response rating, Corn [4, 36] | Plant response rating, Oat, Wild [13, 36] | Plant response rating, Blackgrass [17, 33] | Plant response rating, Barnyardgrass [19, 36]
50: Plant response rating, Corn [9, 33] | Plant response rating, Barnyardgrass [19, 35]
100: Plant response rating, Pigweed, Palmer [1, 33] | Pigweed, Palmer plant response rating [1, 34] | Plant response rating, Kochia [2, 36] | Plant response rating, Ryegrass, Italian [7, 36] | Plant response rating, Barnyardgrass [10, 33] | Barnyardgrass plant response rating [10, 34] | Plant response rating, Blackgrass [12, 36] | Plant response rating, Ryegrass, Italian [15, 33] | Plant response rating, Kochia [16, 33] | Kochia plant response rating [16, 34] | Plant response rating, Pigweed, Palmer [20, 36] | Plant response rating, Soybean [21, 33] | Plant response rating, Galium [26, 35] | Plant response rating, Foxtail, Green [27, 33] | Foxtail, Green plant response rating [27, 34] | Plant response rating, Soybean [28, 35] | Plant response rating, Soybean [28, 36]
30: Plant response rating, Wheat [3, 35] | Blackgrass plant response rating [17, 34]
40: Wheat plant response rating [14, 34] | Plant response rating, Horseweed [22, 36] | Oat, Wild plant response rating [24, 34]
0: Plant response rating, Barnyardgrass (Flood) [8] | Plant response rating, Sedge, Umbrella (Flood) [18] | Plant response rating, Ducksalad (Flood) [23] | Plant response rating, Rice (Flood) [25]
10: Plant response rating, Horseweed [22, 35]
90: Plant response rating, Kochia [2, 35] | Plant response rating, Wheat [3, 36] | Plant response rating, Ragweed [5, 35] | Plant response rating, Ragweed [5, 36] | Plant response rating, Ragweed [6, 33] | Plant response rating, Ryegrass, Italian [7, 35] | Plant response rating, Foxtail, Green [11, 35] | Plant response rating, Foxtail, Green [11, 36] | Plant response rating, Blackgrass [12, 35] | Plant response rating, Wheat [14, 33] | Ryegrass, Italian plant response rating [15, 34] | Plant response rating, Pigweed, Palmer [20, 35] | Plant response rating, Oat, Wild [24, 33]
80: Ragweed plant response rating [6, 34]
60: Plant response rating, Corn [4, 35] | Plant response rating, Oat, Wild [13, 35] | Soybean plant response rating [21, 34]
